From US20050096370A1, “Method for inhibiting tumor angiogenesis and tumor growth” (Bizbiotech Co., Ltd., priority 2003, published 2005)

Experiments:
[1] = system: human cancer xenografts (Hep3B, NCI-H87, SiHa, SK-N-MC, Caki-1); experiment: counts of HIF-1α-positive cells and CD31-positive vessels in xenograft tumor sections; type: in vivo, nude mice; settings: regardless of cell origin, treated 2 weeks, P<0.01
Procedure: FIG. 10 is a histogram showing HIF-1α expression detected by immunohistochemistry in human cancer xenografts derived from Hep3B hepatoma, NCI-H87 gastric carcinoma, SiHa cervical carcinoma, SK-N-MC neuroblastoma, or Caki-1 renal carcinoma cells. Male nude mice were injected subcutaneously in the flank with 5×10^6 viable tumor cells. […] After the last treatment, the mice were euthanized, the tumors removed, fixed with formalin, embedded in paraffin and processed for hinmunohistochemistry to detect HIF-1α-positive cells. […] Each bar represents the mean with lower or upper 95% confidence interval. Differences between treatment groups were compared using a Mann-Whitney U test. […]
FIG. 11 is a histogram showing vascular density detected by immunohistochemistry in human cancer xenografts derived from Hep3B hepatoma, NCI-H87 gastric carcinoma, SiHa cervical carcinoma, SK-N-MC neuroblastoma, or Caki-1 renal carcinoma cells. […]
We further quantified the numbers of HIF-1α-positive cells and CD31-positive vessels in tumor sections from vehicle- and YC-1-treated mice. […] The expression of HIF-1α and the vessel density were measured by counting the numbers of immunopositive cells and vessel profiles (identified by CD31 staining) per mm^2 under microscopic images. We analyzed ten or more different lesions per xenograft tumor.

HIF-1α and VEGF = HIF-1α and VEGF protein immunoblot of Hep3B xenograft tumor lysates; type: in vivo, nude mice; settings: Hep3B xenografts, 30 μg/g daily i.p. 2 weeks
Procedure: Male nude mice were injected subcutaneously in the flank with 5×10^6 viable Hep3B cells. […] After the last treatment, the mice were euthanized, the tumors removed and lysates prepared for immunoblotting.
Male nude mice were injected subcutaneously in the flank with 5×10^6 viable Hep3B cells. […] After the last treatment, the mice were euthanized, the tumors removed and lysates prepared for immunoblotting. Tumor lysates from vehicle-treated mice (C) and from. […] The antigen-antibody-protein A complexes were washed extensively with the lysis buffer, the immunocomplexes were eluted by boiling for 3 minutes in a sample buffer containing 2% SDS and 10 mM dithiothreitol and subjected to SDS-PAGE, and then immunoblotted using a rat anti HIF-1α antibody developed previously (Chun et al., Biochem J 2002 362:71-79). β-actin protein was measured as an internal standard. VEGF in tumor tissue was detected using a mouse monoclonal anti-VEGF (SantaCruz Biotechnology Inc., Santa Cruz, Calif.) at a dilution of 1:1000, followed by incubation with a horseradish peroxidase-conjugated anti-mouse antiseruni (Zymed Laboratories Inc.).

Question: `OCc1ccc(-c2nn(Cc3ccccc3)c3ccccc23)o1` [YC-1, 3-(5′-hydroxymethyl-2′-furyl)-1-benzylindazole] was tested. Which “blood vessel formation (CD31 vessel profiles per mm^2)” value [1] did it give?
Answer: statistically significantly inhibited

Question: And the “expression of HIF-1α protein (immunopositive cells per mm^2)” value [1]?
Answer: statistically significantly inhibited

Question: And the “level of HIF-1α protein expression in tumors versus vehicle” value (HIF-1α and VEGF)?
Answer: markedly lower

Question: And the “level of VEGF protein expression in tumors versus vehicle” value (HIF-1α and VEGF)?
Answer: markedly lower
